These results are taken from patent publication US9315517B2, “Imidazol-piperidinyl derivatives as modulators of kinase activity” (Merck Patent GmbH, priority 2012, dated 2016).

Assay [1] has as its target T1, P70S6K (T412E mutant, Millipore) (Homo sapiens, UniProt P23443, T412E).
T1 construct: purchased Millipore
As to the kind of experiment: P70S6K enzyme assay. It counts as biochemical. The conditions noted are these: enzyme inhibition; 24 μM ATP, 90 min at 25° C., Caliper mobility shift. The procedure: (§1) The IC50 values reported for the compounds in the Experimental section were derived from the following protocol for the p70S6K and AKT enzyme assays.
P70S6K inhibitor compounds were diluted and plated in 96 well plates. A reaction mixture including the following components was then added to the compound plate to initiate the enzyme reaction; P70S6K (3 nM, T412E mutant, Millipore) was mixed with 24 μM ATP in an assay buffer containing 100 mM Hepes (pH 7.5), 5 mM MgCl2, 1 mM DTT, 0.015% Brij and 1 μM of the substrate peptide FITC-AHA-AKRRRLSSLRA-OH (derived from the S6 ribosomal protein sequence, FITC=fluorescein isothiocyanate, AHA=6-aminohexanoic acid). The reaction was incubated for 90 min at 25° C., before the addition of 10 mM EDTA to stop the reaction. The proportion of substrate and product (phosphorylated) peptide was analysed on a Caliper Life Sciences Lab Chip 3000, using a pressure of −1.4 psi, and upstream and downstream voltages of −3000 and −700 respectively. Product peaks were resolved before substrate peaks on the resulting chromatograms.

Another assay concerns the target T2, His-AKT (Full Length) (Homo sapiens, UniProt P31749).
T2 construct: 0.1 ng/μl His-AKT (Full Length); His; purchased Invitrogen P2999
Put plainly: AKT enzyme assay. It counts as biochemical. The conditions noted are these: enzyme inhibition; 160 uM ATP, 90 min at 25° C., Caliper mobility shift. The procedure: as §1
A TTP Mosquito liquid handling instrument was used to place 125 nl of the appropriate concentration of inhibitor in 100% DMSO (for a dose response curve calculation) into each well of a 384-well plate. To this reaction components were added to a final volume of 12.5 μl: • 0.1 ng/μl His-AKT (Full Length), (Invitrogen, Part # P2999, Lot # 641228C). • 160 uM ATP (Fluke, 02055) • 1 mM DTT (Sigma, D0632) • 1 mM MgCl2 (Sigma, M1028) • 1 μM substrate peptide (sequence FITC-AHA-GRPRTSSFAEG-NH2), synthesized by Tufts Peptide Synthesis service. • 100 mM HEPES pH 7.5 (Calbiochem, 391338) • 0.015% Brij-35 (Sigma, B4184)
The reaction was incubated for 90 min at 25° C., and then stopped by the addition of 70 μl of Stop buffer (100 mM HEPES pH 7.5, 0.015% Brij-35, 10 mM EDTA (Sigma, E7889)).
The plate was read on a Caliper LC 3000 in an Off-Chip mobility shift assay format, using the following parameters for a 12-sipper chip: screening pressure −2.3 psi, upstream voltage −500, and downstream voltage −3000. These conditions caused unphosphorylated substrate and phosphorylated product peptide to resolve as separate peaks allowing direct measurement of percentage of conversion of substrate to product. The percent conversion was plotted against concentration of inhibitor to produce a sigmoidal dose response curve, from which an IC50 was calculated.

pIC50: −log10 of the molar value. Bounds are passed on as bounds.

T2 sequence (P31749 whole entry): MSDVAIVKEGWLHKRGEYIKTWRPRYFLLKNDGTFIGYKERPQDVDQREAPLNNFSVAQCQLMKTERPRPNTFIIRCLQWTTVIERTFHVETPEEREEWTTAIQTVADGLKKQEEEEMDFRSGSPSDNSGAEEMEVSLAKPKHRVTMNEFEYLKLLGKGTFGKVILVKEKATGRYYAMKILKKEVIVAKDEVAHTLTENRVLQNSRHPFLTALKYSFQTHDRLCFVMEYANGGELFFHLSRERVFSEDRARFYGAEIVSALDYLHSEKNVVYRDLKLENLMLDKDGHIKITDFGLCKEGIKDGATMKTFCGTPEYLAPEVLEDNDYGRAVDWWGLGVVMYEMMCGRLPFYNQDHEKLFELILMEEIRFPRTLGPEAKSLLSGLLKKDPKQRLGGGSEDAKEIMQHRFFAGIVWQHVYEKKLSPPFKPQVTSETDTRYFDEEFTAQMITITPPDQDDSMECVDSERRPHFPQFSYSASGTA
T1 sequence (P23443 whole entry T412E): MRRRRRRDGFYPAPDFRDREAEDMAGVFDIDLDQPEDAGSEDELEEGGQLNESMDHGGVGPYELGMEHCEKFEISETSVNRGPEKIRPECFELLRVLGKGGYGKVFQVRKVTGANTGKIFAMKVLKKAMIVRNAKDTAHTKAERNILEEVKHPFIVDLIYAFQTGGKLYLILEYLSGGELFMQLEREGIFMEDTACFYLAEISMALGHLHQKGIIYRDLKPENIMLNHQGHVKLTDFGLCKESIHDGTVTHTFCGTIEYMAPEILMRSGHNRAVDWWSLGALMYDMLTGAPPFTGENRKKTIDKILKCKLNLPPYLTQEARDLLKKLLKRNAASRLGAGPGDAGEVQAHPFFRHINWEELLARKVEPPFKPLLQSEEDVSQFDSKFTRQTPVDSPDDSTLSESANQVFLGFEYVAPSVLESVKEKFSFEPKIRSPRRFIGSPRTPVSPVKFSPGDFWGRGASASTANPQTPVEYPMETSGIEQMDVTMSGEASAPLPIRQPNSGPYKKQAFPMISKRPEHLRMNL

In the case of `COc1cc(-c2cn(CCN(C)C)c(C3CCN(c4ncnc5c4CCC5)CC3)n2)ccc1F` [Compound A16, {2-[2-[1-(6,7-Dihydro-5H-cyclopentapyrimidin-4-yl)-piperidin-4-yl]-4-(4-fluoro-3-methoxy-phenyl)-imidazol-1-yl]-ethyl}-dimethylamine], the pIC50 in assay [1] was more than 7.60; at His-AKT (Full Length), 7.00 to 7.59.
The matching figures for `Fc1ccc(-c2cn(CCN3CCC3)c(C3CCN(c4ncnc5c4CCCN5)CC3)n2)cc1Cl` [Compound A38, 4-{4-[1-(2-Azetidin-1-yl-ethyl)-4-(3-chloro-4-fluoro-phenyl)-1H-imidazol-2-yl]-piperidin-1-yl}-5,6,7,8-tetrahydro-pyrido[2,3-d]pyrimidine]: more than 7.60 and more than 7.60.
In the case of `O=C1CNc2ncnc(N3CCC(c4nc(C(F)(F)F)cn4CCN4CCCC4)CC3)c2N1` [Compound A63, 4-{4-[trifluoromethyl-1-(2-pyrrolidin-1-yl-ethyl)-1H-imidazol-2-yl]-piperidin-1-yl}-7,8-dihydro-5H-ptericlin-6-one], the pIC50 (in assay [1]; on His-AKT (Full Length)) was less than 6.00 throughout.
Regarding `Cc1cc(-c2cn(CCN(C)C)c(C3CCN(c4ncnc5c4OCCN5)CC3)n2)ccc1F` [Compound A7, {2-[2-[1-(7,8-Dihydro-6H-pyrimido[5,4-b][1,4]oxazin-4-yl)-piperidin-4-yl]-4-(4-fluoro-3-methyl-phenyl)-imidazol-1-yl]-ethyl}-dimethylamine], the pIC50 in assay [1] is more than 7.60; on His-AKT (Full Length) it was 7.00 to 7.59.
Consider `COc1cc(-c2cn(CCN(C)C)c(C3CCN(c4ncnc5c4CCCN5)CC3)n2)ccc1F` [Compound A34, (2-{4-(4-Fluoro-3-methoxy-phenyl)-2-[1-(5,6,7,8-tetrahydro-pyrido[2,3-d]pyrimidin-4-yl)-piperidin-4-yl]-imidazol-1-yl}-ethyl)-dimethylamine], for which the pIC50 (in assay [1]; on His-AKT (Full Length)) was more than 7.60 in each case.
Take `Cc1cc(-c2cn(CCN3CCC3)c(C3CCN(c4ncnc5c4OCCN5)CC3)n2)ccc1F` [Compound A11, 4-{4-[1-(2-Azetidin-1-yl-ethyl)-4-(4-fluoro-3-methyl-phenyl)-1H-imidazol-2-yl]-piperidin-1-yl}-7,8-dihydro-6H-pyrimido[5,4-b][1,4]oxazine]: the pIC50 (in assay [1]; on His-AKT (Full Length)) was more than 7.60 in each case.
As to `Cc1cccc(-c2cn(CCN3CCCC3)c(C3CCN(c4ncnc5c4NC(=O)CN5)CC3)n2)c1` [Compound A62, 4-{4-[4-(3-MethylPhenyl)-1-(2-pyrrolidin-1-yl-ethyl)-1H-imidazol-2-yl]-piperidin-1-yl}-7,8-dihydro-5H-pteridin-6-one], the pIC50 (in assay [1]; at His-AKT (Full Length)) was 7.00 to 7.59 in each case.
Turning to `CN(C)CCn1cc(-c2ccc(F)c(C(F)(F)F)c2)nc1C1CCN(c2ncnc3c2CCC3)CC1` [Compound A14, {2-[2-[1-(6,7-Dihydro-5H-cyclopentapyrimidin-4-yl)-piperidin-4-yl]-4-(4-fluoro-3-trifluoromethyl-phenyl)-imidazol-1-yl]-ethyl}-dimethylamine], the results for the pIC50 (in assay [1]; at His-AKT (Full Length)) were more than 7.60 and 7.00 to 7.59, respectively.
On to `CN(C)CCn1cc(-c2ccc(F)c(C(F)(F)F)c2)nc1C1CCN(c2ncnc3c2NC(=O)CN3)CC1` [Compound A41, 4-{4-[4-(4-fluoro-3-trifluoromethyl-phenyl)-1-(2-dimethyamine-1-yl-ethyl)-1H-imidazol-2-yl]-piperidin-1-yl}-7,8-dihydro-5H-pteridin-6-one], for which the pIC50 (in assay [1]; at His-AKT (Full Length)) was more than 7.60 in each case.
In the case of `CN(C)CCn1cc(-c2ccc(F)c(C(F)(F)F)c2)nc1C1CCN(c2ncnc3c2CCN3)CC1` [Compound A3, 2-(2-(1-(6,7-dihydro-5H-pyrrolo[2,3-d]pyrimidin-4-yl)piperidin-4-yl)-4-(4-fluoro-3-(trifluoromethyl)phenyl)-1H-imidazol-1-yl)-N,N-dimethylethanamine], the negative logarithm of the IC50 (pIC50) (in assay [1]; on His-AKT (Full Length)) was more than 7.60 in each case.
Regarding `Cc1ccc(-c2cn(CCN3CCCC3)c(C3CCN(c4ncnc5c4NC(=O)CN5)CC3)n2)cc1` [Compound A58, 4-{4-[4-(4-MethylPhenyl)-1-(2-pyrrolidin-1-yl-ethyl)-1H-imidazol-2-yl]-piperidin-1-yl}-7,8-dihydro-5H-pteridin-6-one], the negative logarithm of the IC50 (pIC50) (in assay [1]; on His-AKT (Full Length)) was less than 6.00 in each case.
Take `O=C1CNc2ncnc(N3CCC(c4nc(-c5ccc(F)c(C(F)(F)F)c5)cn4CCN4CCC4)CC3)c2N1` [Compound A40, 4-{4-[4-(4-fluoro-3-trifluoromethyl-phenyl)-1-(2-azetidin-1-yl-ethyl)-1H-imidazol-2-yl]-piperidin-1-yl}-7,8-dihydro-5H-pteridin-6-one]: the pIC50 (in assay [1]; at His-AKT (Full Length)) was more than 7.60 each time.
With `Cc1cc(-c2cn(CCN3CCC3)c(C3CCN(c4ncnc5c4NC(=O)CN5)CC3)n2)ccc1F` [Compound A42, 4-{4-[4-(4-fluoro-3-methyl-phenyl)-1-(2-azetidin-1-yl-ethyl)-1H-imidazol-2-yl]-piperidin-1-yl}-7,8-dihydro-5H-pteridin-6-one], the pIC50 in assay [1] is more than 7.60; at His-AKT (Full Length), 7.00 to 7.59.
Regarding `O=C1CNc2ncnc(N3CCC(c4nc(-c5ccnc(C(F)(F)F)c5)cn4CCN4CCC4)CC3)c2N1` [Compound A43, 4-{4-[1-(2-azetidin-1-yl-ethyl)-4-(2-trifluoromethyl-pyridin-4-yl)-1H-imidazol-2-yl]-piperidin-1-yl}-7,8-dihydro-5H-pteridin-6-one], the values for the pIC50 (in assay [1]; on His-AKT (Full Length)) were more than 7.60 and 7.00 to 7.59, respectively.
Regarding `O=C1CNc2ncnc(N3CCC(c4nc(-c5ccnc(C6CC6)c5)cn4CCN4CCC4)CC3)c2N1` [Compound A44, 4-{4-[1-(2-azetidin-1-yl-ethyl)-4-(2-cyclopropyl-pyridin-4-yl)-1H-imidazol-2-yl]-piperidin-1-yl}-7,8-dihydro-5H-pteridin-6-one], the pIC50 in assay [1] is more than 7.60; on His-AKT (Full Length) it was 6.30 to 7.00.
In the case of `CN(C)CCn1cc(-c2ccc(F)c(Cl)c2)nc1C1CCN(c2ncnc3c2OCCN3)CC1` [Compound A9, (2-{4-(3-Chloro-4-fluoro-phenyl)-2-[1-(7,8-dihydro-6H-pyrimido[5,4-b][1,4]oxazin-4-yl)-piperidin-4-yl]-imidazol-1-yl}-ethyl)-dimethylamine], the pIC50 (in assay [1]; on His-AKT (Full Length)) was more than 7.60 each time.
Consider `O=C1CNc2ncnc(N3CCC(c4nc(-c5ccc(F)c(C(F)(F)F)c5)cn4CCN4CCCC4)CC3)c2N1` [Compound A39, 4-{4-[4-(4-fluoro-3-trifluoromethyl-phenyl)-1-(2-pyrrolidin-1-yl-ethyl)-1H-imidazol-2-yl]-piperidin-1-yl}-7,8-dihydro-5H-pteridin-6-one], for which the pIC50 (in assay [1]; at His-AKT (Full Length)) was more than 7.60 in each case.
Consider `Fc1ccc(-c2cn(CCN3CCC3)c(C3CCN(c4ncnc5c4OCCN5)CC3)n2)cc1Cl` [Compound A13, 4-{4-[1-(2-Azetidin-1-yl-ethyl)-4-(3-chloro-4-fluoro-phenyl)-1H-imidazol-2-yl]-piperidin-1-yl}-7,8-dihydro-6H-pyrimido[5,4-b][1,4]oxazine], for which the negative logarithm of the IC50 (pIC50) (in assay [1]; on His-AKT (Full Length)) was more than 7.60 each time.
For the compound `CN(C)CCn1cc(-c2ccc(F)c(C(F)(F)F)c2)nc1C1CCN(c2ncnc3c2OCCN3)CC1` [Compound A6, {2-[2-[1-(7,8-Dihydro-6H-pyrimido[5,4-b][1,4]oxazin-4-yl)-piperidin-4-yl]-4-(4-fluoro-3-trifluoromethyl-phenyl)-imidazol-1-yl]-ethyl}-dimethylamine], the pIC50 (in assay [1]; on His-AKT (Full Length)) was more than 7.60 in each case.
Take `FC(F)(F)c1cc(-c2cn(CCN3CCC3)c(C3CCN(c4ncnc5c4OCCN5)CC3)n2)ccn1` [Compound A2, 4-(4-(1-(2-(azetidin-1-yl)ethyl)-4-(2-(trifluoromethyl)pyridin-4-yl)-1H-imidazol-2-yl)piperidin-1-yl)-7,8-dihydro-6H-pyrimido[5,4-b][1,4]oxazine]: the figures for the pIC50 (in assay [1]; at His-AKT (Full Length)) were more than 7.60 and 7.00 to 7.59, respectively.
Regarding `CN(C)CCn1cc(-c2cccc(Cl)c2)nc1C1CCN(c2ncnc3c2NC(=O)CN3)CC1` [Compound A47, 4-{4-[4-(3-ChloroPhenyl)-1-(2-dimethylamin-1-yl-ethyl)-1H-imidazol-2-yl]-piperidin-1-yl}-7,8-dihydro-5H-pteridin-6-one], the pIC50 (in assay [1]; on His-AKT (Full Length)) was 6.30 to 7.00 throughout.

A word on the pIC50: it is −log10 of the IC50, conventionally taken in molar units.
